# Measured values from PubChem BioAssay AID328 (DTP/NCI, 2004).
# Where “and” joins values, the source holds several entries; their conditions need not be identical. Identical values can stand only once. Inconclusive results and toxic doses are left out.
# Tested on: BDF1 mice, P388 leukemia ip, median survival T/C
# Assay: NCI In Vivo Anticancer Drug Screen. Data for tumor model P388 Leukemia (intraperitoneal) in B6D2F1 (BDF1) mice
# Details: endpoint: median survival time, higher = longer survival
# In short: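 Compound-treated tumour-bearing mice were compared with vehicle-treated controls. Survival was recorded, and the value is the treated-group measurement divided by the control-group measurement (T/C).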
# [1] = dose: 50.0 mg/kg/injection, schedule: Q01DX009 (ip), vehicle: saline
# [2] = dose: 100.0 mg/kg/injection, schedule: Q01DX009 (ip), vehicle: saline
# [3] = dose: 100.0 mg/kg/injection, schedule: Q01DX001 (ip), vehicle: saline with Tween-80
# [4] = dose: 200.0 mg/kg/injection, schedule: Q01DX001 (ip), vehicle: saline with Tween-80
# [5] = dose: 400.0 mg/kg/injection, schedule: Q01DX001 (ip), vehicle: saline with Tween-80
# [6] = dose: 100.0 mg/kg/injection, schedule: Q01DX009 (ip), vehicle: saline with Tween-80
# [7] = dose: 100.0 mg/kg/injection, schedule: Q04DX003 (ip), vehicle: saline with Tween-80
# [8] = dose: 200.0 mg/kg/injection, schedule: Q01DX009 (ip), vehicle: saline with Tween-80
# [9] = dose: 200.0 mg/kg/injection, schedule: Q04DX003 (ip), vehicle: saline with Tween-80
# [10] = dose: 400.0 mg/kg/injection, schedule: Q01DX009 (ip), vehicle: saline with Tween-80
# [11] = dose: 400.0 mg/kg/injection, schedule: Q04DX003 (ip), vehicle: saline with Tween-80
# [12] = dose: 200.0 mg/kg/injection, schedule: Q01DX009 (ip), vehicle: saline
# [13] = dose: 100.0 mg/kg/injection, schedule: Q04DX003 (ip), vehicle: saline
# [14] = dose: 200.0 mg/kg/injection, schedule: Q04DX003 (ip), vehicle: saline
# [15] = dose: 400.0 mg/kg/injection, schedule: Q04DX003 (ip), vehicle: saline
compound,measurement,setting,value
CCOC(=O)C(Br)C(=O)OCC,T/C,"dose: 6.25 mg/kg/injection, schedule: Q01DX009 (ip), vehicle: saline",100 % of control
same,T/C,"dose: 12.5 mg/kg/injection, schedule: Q01DX009 (ip), vehicle: saline",100 % of control
same,T/C,"dose: 12.5 mg/kg/injection, schedule: Q04DX003 (ip), vehicle: saline",110 % of control
same,T/C,"dose: 25.0 mg/kg/injection, schedule: Q01DX009 (ip), vehicle: saline",95 % of control
same,T/C,"dose: 25.0 mg/kg/injection, schedule: Q04DX003 (ip), vehicle: saline",110 % of control
same,T/C,[1],86 % of control
same,T/C,"dose: 50.0 mg/kg/injection, schedule: Q04DX003 (ip), vehicle: saline",105 % of control
Cc1ccccc1N=C(N)N=C(N)N,T/C,[1],100 % of control
same,T/C,[2],100 % of control
COc1cc(Nc2nc(Cl)ncc2[N+](=O)[O-])cc(OC)c1OC,T/C,[3],104 % of control
same,T/C,[4],100 % of control
same,T/C,[5],100 % of control
CCCC(CCC)(C(N)=O)C(=O)O,T/C,"dose: 50.0 mg/kg/injection, schedule: Q01DX001 (ip), vehicle: Klucel (hydroxypropylcellulose) (HPC)",94 % of control
same,T/C,"dose: 100.0 mg/kg/injection, schedule: Q01DX001 (ip), vehicle: Klucel (hydroxypropylcellulose) (HPC)",100 % of control
same,T/C,"dose: 200.0 mg/kg/injection, schedule: Q01DX001 (ip), vehicle: Klucel (hydroxypropylcellulose) (HPC)",122 % of control
C[P+](Cc1ccc([N+](=O)[O-])cc1)(c1ccccc1)c1ccccc1,T/C,"dose: 1.56 mg/kg/injection, schedule: Q01DX009 (ip), vehicle: Klucel (hydroxypropylcellulose) (HPC)",96 % of control
same,T/C,"dose: 3.12 mg/kg/injection, schedule: Q01DX009 (ip), vehicle: Klucel (hydroxypropylcellulose) (HPC)",88 % of control
same,T/C,"dose: 12.5 mg/kg/injection, schedule: Q01DX009 (ip), vehicle: Klucel (hydroxypropylcellulose) (HPC)",89 % of control
same,T/C,"dose: 12.5 mg/kg/injection, schedule: Q04DX003 (ip), vehicle: Klucel (hydroxypropylcellulose) (HPC)",100 % of control
same,T/C,"dose: 50.0 mg/kg/injection, schedule: Q04DX003 (ip), vehicle: Klucel (hydroxypropylcellulose) (HPC)",104 % of control
Cc1cc2nc(Oc3ccccc3)nc(=O)n2c(C)n1,T/C,"dose: 12.5 mg/kg/injection, schedule: Q01DX009 (ip), vehicle: saline with Tween-80",109 % of control
same,T/C,"dose: 25.0 mg/kg/injection, schedule: Q01DX009 (ip), vehicle: saline with Tween-80",114 % of control
same,T/C,"dose: 50.0 mg/kg/injection, schedule: Q01DX009 (ip), vehicle: saline with Tween-80",97 % of control
CC1=NNC(=O)C1CCO (stereo not drawn),T/C,"dose: 50.0 mg/kg/injection, schedule: Q01DX009 (ip), vehicle: Klucel (hydroxypropylcellulose) (HPC)",86 % of control
same,T/C,"dose: 100.0 mg/kg/injection, schedule: Q01DX009 (ip), vehicle: Klucel (hydroxypropylcellulose) (HPC)",104 % of control
same,T/C,"dose: 175.0 mg/kg/injection, schedule: Q01DX009 (ip), vehicle: Klucel (hydroxypropylcellulose) (HPC)",90 % of control
same,T/C,"dose: 200.0 mg/kg/injection, schedule: Q01DX009 (ip), vehicle: Klucel (hydroxypropylcellulose) (HPC)",122 % of control
same,T/C,"dose: 265.0 mg/kg/injection, schedule: Q01DX009 (ip), vehicle: Klucel (hydroxypropylcellulose) (HPC)",104 % of control
same,T/C,"dose: 400.0 mg/kg/injection, schedule: Q01DX009 (ip), vehicle: Klucel (hydroxypropylcellulose) (HPC)",95 % of control
CC(=O)Nc1ccc(NNCc2ccccc2)c(N)c1,T/C,[3],97 % of control
same,T/C,[4],96 % of control
same,T/C,[5],91 % of control
COc1ccc(C=NCCN=Cc2ccc(OC)c(OC)c2)cc1OC,T/C,[6],105 % of control
same,T/C,[7],95 % of control
same,T/C,[8],100 % of control
same,T/C,[9],91 % of control
same,T/C,[10],100 % of control
same,T/C,[11],91 % of control
O=NN(CCCl)C(=O)Nc1ccc2[nH]c3ccccc3c2c1,T/C,"dose: 30.0 mg/kg/injection, schedule: Q01DX009 (ip), vehicle: Klucel (hydroxypropylcellulose) (HPC)",183 % of control
same,T/C,"dose: 45.0 mg/kg/injection, schedule: Q01DX009 (ip), vehicle: Klucel (hydroxypropylcellulose) (HPC)",175 % of control
same,T/C,"dose: 65.0 mg/kg/injection, schedule: Q01DX009 (ip), vehicle: Klucel (hydroxypropylcellulose) (HPC)",183 % of control and 192 % of control
same,T/C,"dose: 130.0 mg/kg/injection, schedule: Q01DX009 (ip), vehicle: Klucel (hydroxypropylcellulose) (HPC)",208 % of control
CC1(C2CC(=O)c3c(O)ccc(O)c3C2)OCCO1 (stereo not drawn),T/C,"dose: 25.0 mg/kg/injection, schedule: Q01DX009 (ip), vehicle: other",107 % of control
same,T/C,"dose: 50.0 mg/kg/injection, schedule: Q01DX009 (ip), vehicle: other",100 % of control
same,T/C,"dose: 100.0 mg/kg/injection, schedule: Q01DX009 (ip), vehicle: other",98 % of control
same,T/C,"dose: 200.0 mg/kg/injection, schedule: Q01DX009 (ip), vehicle: other",98 % of control
same,T/C,"dose: 400.0 mg/kg/injection, schedule: Q01DX009 (ip), vehicle: other",116 % of control
N#CCCC(C#N)(CCC#N)c1ccc([N+](=O)[O-])cc1,T/C,[6],92 % of control
same,T/C,[7],101 % of control
same,T/C,[8],92 % of control
same,T/C,[9],100 % of control
same,T/C,[10],92 % of control
same,T/C,[11],102 % of control
O=C(O)c1cc(O)c(O)c(O)c1,T/C,"dose: 1.25 mg/kg/injection, schedule: Q01DX009 (ip), vehicle: saline",90 % of control
same,T/C,"dose: 2.5 mg/kg/injection, schedule: Q01DX009 (ip), vehicle: saline",95 % of control
same,T/C,"dose: 5.0 mg/kg/injection, schedule: Q01DX009 (ip), vehicle: saline",95 % of control
same,T/C,"dose: 10.0 mg/kg/injection, schedule: Q01DX009 (ip), vehicle: saline",115 % of control
same,T/C,"dose: 10.0 mg/kg/injection, schedule: Q01DX010 (ip), vehicle: saline",110 % of control
same,T/C,"dose: 20.0 mg/kg/injection, schedule: Q01DX010 (ip), vehicle: saline",100 % of control
same,T/C,"dose: 40.0 mg/kg/injection, schedule: Q01DX010 (ip), vehicle: saline",90 % of control
same,T/C,[1],100 % of control
same,T/C,[2],100 % of control
same,T/C,[12],104 % of control
CC(=O)n1cc(CCC(=O)O)c2ccccc21,T/C,"dose: 100.0 mg/kg/injection, schedule: Q04DX002 (ip), vehicle: saline with Tween-80",106 % of control
same,T/C,"dose: 200.0 mg/kg/injection, schedule: Q04DX002 (ip), vehicle: saline with Tween-80",101 % of control
same,T/C,"dose: 400.0 mg/kg/injection, schedule: Q04DX002 (ip), vehicle: saline with Tween-80",102 % of control
CCN(CC)c1ccc(Cc2ccc(N(CC)CC)cc2Br)c(Br)c1,T/C,"dose: 100.0 mg/kg/injection, schedule: Q04DX003 (ip), vehicle: Klucel (hydroxypropylcellulose) (HPC)",111 % of control
same,T/C,"dose: 200.0 mg/kg/injection, schedule: Q04DX003 (ip), vehicle: Klucel (hydroxypropylcellulose) (HPC)",111 % of control
same,T/C,"dose: 400.0 mg/kg/injection, schedule: Q04DX003 (ip), vehicle: Klucel (hydroxypropylcellulose) (HPC)",111 % of control
CCCOP(=O)(CCl)OCCC,T/C,[13],95 % of control
same,T/C,[14],100 % of control
same,T/C,[15],100 % of control
Nc1ccccc1CCCC(=O)O,T/C,[13],100 % of control
same,T/C,[14],100 % of control
same,T/C,[15],104 % of control
CC(O)C(C)(O)C(=O)O (stereo not drawn),T/C,[1],103 % of control
same,T/C,[2],117 % of control
same,T/C,[13],101 % of control
same,T/C,[12],91 % of control
same,T/C,[14],95 % of control
same,T/C,"dose: 300.0 mg/kg/injection, schedule: Q01DX009 (ip), vehicle: saline",99 % of control
NC(=S)c1ccncc1,T/C,[7],86 % of control
same,T/C,[9],86 % of control
same,T/C,[11],90 % of control
O=[N+]([O-])c1ccc(O)c(C2N(Cc3ccc(N(CCCl)CCCl)cc3)CCCN2Cc2ccc(N(CCCl)CCCl)cc2)c1,T/C,"dose: 12.5 mg/kg/injection, schedule: Q01DX010 (ip), vehicle: carboxymethylcellulose (CMC)",120 % of control
same,T/C,"dose: 25.0 mg/kg/injection, schedule: Q01DX010 (ip), vehicle: carboxymethylcellulose (CMC)",120 % of control
same,T/C,"dose: 100.0 mg/kg/injection, schedule: Q01DX010 (ip), vehicle: carboxymethylcellulose (CMC)",165 % of control
CC(C)(C)/C([O-])=N/[N+](C)(C)C,T/C,"dose: 50.0 mg/kg/injection, schedule: Q01DX001 (ip), vehicle: saline",109 % of control
same,T/C,"dose: 100.0 mg/kg/injection, schedule: Q01DX001 (ip), vehicle: saline",104 % of control
same,T/C,"dose: 200.0 mg/kg/injection, schedule: Q01DX001 (ip), vehicle: saline",104 % of control
CC1C(=O)CC(=O)C1=O (stereo not drawn),T/C,[1],100 % of control
same,T/C,[2],104 % of control
same,T/C,[12],104 % of control
